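The concentration for 50% growth inhibition is given as GI50. The concentration for full growth arrest is given as TGI.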
How the values were obtained:
Assay in all cases: NCI-60 cell line screen, 384-well format
786-0 renal = system: 786-0 renal
A498 renal = system: A498 renal
A549 NSCLC = system: A549 NSCLC
ACHN renal = system: ACHN renal
BT-549 breast = system: BT-549 breast
CAKI-1 renal = system: CAKI-1 renal
CCRF-CEM leukemia = system: CCRF-CEM leukemia
COLO 205 colon = system: COLO 205 colon
DU-145 prostate = system: DU-145 prostate
EKVX NSCLC = system: EKVX NSCLC
HCC-2998 colon = system: HCC-2998 colon
HCT-116 colon = system: HCT-116 colon
HCT-15 colon = system: HCT-15 colon
HL-60(TB) leukemia = system: HL-60(TB) leukemia
HOP-62 NSCLC = system: HOP-62 NSCLC
HOP-92 NSCLC = system: HOP-92 NSCLC
HS 578T breast = system: HS 578T breast
HT29 colon = system: HT29 colon
IGROV1 ovarian = system: IGROV1 ovarian
K-562 leukemia = system: K-562 leukemia
KM12 colon = system: KM12 colon
LOX IMVI melanoma = system: LOX IMVI melanoma
M14 melanoma = system: M14 melanoma
MALME-3M melanoma = system: MALME-3M melanoma
MCF7 breast = system: MCF7 breast
MDA-MB-231 breast = system: MDA-MB-231 breast
MDA-MB-435 melanoma = system: MDA-MB-435 melanoma
MDA-MB-468 breast = system: MDA-MB-468 breast
MOLT-4 leukemia = system: MOLT-4 leukemia
NCI-H226 lung = system: NCI-H226 lung
NCI-H23 lung = system: NCI-H23 lung
NCI-H322M lung = system: NCI-H322M lung
NCI-H460 NSCLC = system: NCI-H460 NSCLC
NCI-H522 lung = system: NCI-H522 lung
NCI/ADR-RES ovarian = system: NCI/ADR-RES ovarian
OVCAR-3 ovarian = system: OVCAR-3 ovarian
OVCAR-4 ovarian = system: OVCAR-4 ovarian
OVCAR-5 ovarian = system: OVCAR-5 ovarian
OVCAR-8 ovarian = system: OVCAR-8 ovarian
PC-3 prostate = system: PC-3 prostate
RPMI-8226 leukemia = system: RPMI-8226 leukemia
RXF 393 renal = system: RXF 393 renal
SF-268 CNS = system: SF-268 CNS
SF-295 CNS = system: SF-295 CNS
SF-539 CNS = system: SF-539 CNS
SK-MEL-28 melanoma = system: SK-MEL-28 melanoma
SK-MEL-5 melanoma = system: SK-MEL-5 melanoma
SK-OV-3 ovarian = system: SK-OV-3 ovarian
SN12C renal = system: SN12C renal
SNB-19 CNS = system: SNB-19 CNS
SNB-75 CNS = system: SNB-75 CNS
SW-620 colon = system: SW-620 colon
T-47D breast = system: T-47D breast
TK-10 renal = system: TK-10 renal
U251 glioblastoma = system: U251 glioblastoma
UACC-257 melanoma = system: UACC-257 melanoma
UACC-62 melanoma = system: UACC-62 melanoma
UO-31 renal = system: UO-31 renal

## CCN1CCN(c2ccc(Nc3cc(N(C)C(=O)Nc4c(Cl)c(OC)cc(OC)c4Cl)ncn3)cc2)CC1
786-0 renal
  GI50: 1430 nM
  TGI: 2760 nM
A498 renal
  GI50: 478 nM
  TGI: 1920 nM
A549 NSCLC
  GI50: 1910 nM
  TGI: 3850 nM
ACHN renal
  GI50: 1400 nM
  TGI: 3000 nM
BT-549 breast
  GI50: 518 nM
  TGI: 1990 nM
CAKI-1 renal
  GI50: 590 nM
  TGI: 2120 nM
CCRF-CEM leukemia
  GI50: 1580 nM
  TGI: 2950 nM
COLO 205 colon
  GI50: 1940 nM
  TGI: 3440 nM
DU-145 prostate
  GI50: 1760 nM
  TGI: 5320 nM
EKVX NSCLC
  GI50: 1190 nM
  TGI: 2930 nM
HCC-2998 colon
  GI50: 1920 nM
  TGI: 3890 nM
HCT-116 colon
  GI50: 1440 nM
  TGI: 2800 nM
HCT-15 colon
  GI50: 688 nM
  TGI: 2390 nM
HL-60(TB) leukemia
  GI50: 1880 nM
  TGI: 3300 nM
HOP-62 NSCLC
  GI50: 1910 nM
  TGI: 3930 nM
HOP-92 NSCLC
  GI50: 1700 nM
  TGI: 3360 nM
HS 578T breast
  GI50: 1190 nM
  TGI: 2500 nM
HT29 colon
  GI50: 756 nM
  TGI: 2020 nM
IGROV1 ovarian
  GI50: 273 nM
  TGI: 702 nM
K-562 leukemia
  GI50: 430 nM
  TGI: 1480 nM
KM12 colon
  GI50: 2230 nM
  TGI: 4300 nM
LOX IMVI melanoma
  GI50: 1660 nM
  TGI: 3060 nM
M14 melanoma
  GI50: 1390 nM
  TGI: 2690 nM
MALME-3M melanoma
  GI50: 1470 nM
  TGI: 2800 nM
MCF7 breast
  GI50: 1410 nM
  TGI: 2950 nM
MDA-MB-231 breast
  GI50: 2130 nM
  TGI: 4720 nM
MDA-MB-435 melanoma
  GI50: 1880 nM
  TGI: 3340 nM
MDA-MB-468 breast
  GI50: 1290 nM
  TGI: 2610 nM
MOLT-4 leukemia
  GI50: 1170 nM
  TGI: 2390 nM
NCI-H226 lung
  GI50: 24.6 nM
  TGI: 5810 nM
NCI-H23 lung
  GI50: 2340 nM
  TGI: 6210 nM
NCI-H322M lung
  GI50: 2300 nM
  TGI: 6250 nM
NCI-H460 NSCLC
  GI50: 1230 nM
  TGI: 2530 nM
NCI-H522 lung
  GI50: 475 nM
  TGI: 1460 nM
NCI/ADR-RES ovarian
  GI50: 2160 nM
  TGI: 4890 nM
OVCAR-3 ovarian
  GI50: 1040 nM
  TGI: 2340 nM
OVCAR-4 ovarian
  GI50: 1280 nM
  TGI: 3360 nM
OVCAR-5 ovarian
  GI50: 2180 nM
  TGI: 5140 nM
OVCAR-8 ovarian
  GI50: 1770 nM
  TGI: 3380 nM
PC-3 prostate
  GI50: 2040 nM
  TGI: 4950 nM
RPMI-8226 leukemia
  GI50: 1900 nM
  TGI: 3330 nM
RXF 393 renal
  GI50: 1290 nM
  TGI: 2590 nM
SF-268 CNS
  GI50: 1110 nM
  TGI: 2610 nM
SF-295 CNS
  GI50: 1750 nM
  TGI: 3160 nM
SF-539 CNS
  GI50: 1420 nM
  TGI: 2830 nM
SK-MEL-28 melanoma
  GI50: 1860 nM
  TGI: 3280 nM
SK-MEL-5 melanoma
  GI50: 1300 nM
  TGI: 2580 nM
SK-OV-3 ovarian
  GI50: 365 nM
  TGI: 1360 nM
SN12C renal
  GI50: 753 nM
  TGI: 2200 nM
SNB-19 CNS
  GI50: 2500 nM
  TGI: 7510 nM
SNB-75 CNS
  GI50: 193 nM
  TGI: 2290 nM
SW-620 colon
  GI50: 1840 nM
  TGI: 3470 nM
T-47D breast
  GI50: 453 nM
  TGI: 1420 nM
TK-10 renal
  GI50: 1550 nM
  TGI: 3440 nM
U251 glioblastoma
  GI50: 1460 nM
  TGI: 2800 nM
UACC-257 melanoma
  GI50: 1610 nM
  TGI: 2960 nM
UACC-62 melanoma
  GI50: 1720 nM
  TGI: 3130 nM
UO-31 renal
  GI50: 1370 nM
  TGI: 2670 nM

Reference: PubChem BioAssay (NCI)
